# Data from patent US6664406B1, “Nervonic acid derivatives, their preparation and use” (Croda International PLC, priority 1999, dated 2003).
# Like-named read-outs stand apart in the source and are kept apart here.
# What was measured:
# [1] = rats and mice, up to 10 g/kg; reported in WO 96/34846; cited from earlier work
# [2] = tested on: chronic EAE in the Biozzi mouse model; assay: NA:NA and NA:GLA in ethyl oleate in chronic relapsing EAE (Example 7); format: in vivo; conditions: for AG: Percentage of mice in the group / CFT: Percentage of mice in the group / CHLP: Percentage of mice in the group / HLH: Percentage of mice in the group / PFT: Percentage of mice in the group / PHLP: Percentage of mice in the group: ethyl oleate vehicle
# Description: (§1) Male Biozzi mice weighing 30-35 g were injected in each flank with 0.15 mL of an emulsion containing lyophilised mouse spinal cord, phosphate buffered saline and incomplete Freund's adjuvant supplemented with Mycobacterium butyricum and Mycobacterium tuberculosis H37Ra.
# (§2) 1: Partial Flaccid Tail (PFT), 2: Complete Flaccid Tail (CFT), 3: Impaired Righting Reflex (IRR), 4: Ataxic Gait (AG), 5: Hind Limb Hypotonia (HLH), 6: Partial Hind Limb Paralysis (PHLP), 7: Complete Hind Limb Paralysis (CHLP), 8: Moribund (M), 9: Dead (D).
# [3] = tested on: CREAE in the Biozzi mouse model; assay: NA:NA and NA:GLA in Miglyol 810 in CREAE (Example 8); format: in vivo
# Description: as §1, §2
# Therefore, Miglyol appeared well-suited for use as a vehicle in subsequent studies to determine the efficacy of compounds in CREAE. Therefore, using Miglyol 810 as the new vehicle, prophylactic effects of NA:NA and NA:GLA were re-assessed on CREAE in the Biozzi mouse model (90% dilution, 1000 mg/kg/day, up to 43 days PI).
# [4] = Nervonic acid composition of total polar lipid from rat brain (Example 9); format: in vivo; conditions: after Example 6 treatments; NA:GLA at both low and high doses
# Description: (§3) Upon termination of certain biological evaluations, rat or mice brains were extracted and the fatty acid composition of total polar lipids from rat/mouse brain was determined.
# (§4) Biological material was sent for analysis to Dr J. Hendersen at the University of Stirling, Institute of Aquaculture, Scotland. Analyses were carried out on two batches of experiments (detailed respectively in Example 6 and Example 7).
# [5] = Nervonic acid composition of total polar lipid from mouse brain (Example 9); format: in vivo; conditions: CREAE-inoculated mice
# Description: as §3, §4
# [6] = Miscibility / physical state of oral compositions in vehicle; format: physicochemical; conditions: room temperature (about 20° C.)
# Description: Formulations of the present invention suitable for oral administration may be in the form of discrete units such as capsules, cachets, tablets or lozenges, each containing a predetermined amount of the active ingredient; in the form of a powder or granules; in the form of a solution or a suspension in an aqueous liquid or non-aqueous liquid; or in the form of an oil-in-water emulsion or a water-in-oil emulsion. The active ingredient may also be in the form of a bolus, electuary or paste. For such formulations, a range of dilutions of the active ingredient in the vehicle is suitable, such as from 1% to 99%, preferably 5% to 50% and more preferably 10% to 25% dilution. Depending upon the level of dilution, the formulation will be either a liquid at room temperature (in the region of about 20° C.) or a low-melting solid.
# [7] = tested on: neurological EAE in the Lewis rat; conditions: for Number diseased/total: 5 days prior to inoculation and 25 days PI
# Description: Male Lewis rats, weighing 230-280 g on the day of inoculation, were injected in each rear footpad with 0.1 ml of an emulsion containing equal parts of guinea pig spinal cord; phosphate buffered saline (PBS) and incomplete Freund's adjuvant supplemented with 10 mg/ml Mycobacterium tuberculosis H37Ra.
# Animals were weighed daily and assessed for neurological disease from day 7 post-inoculation (PI). Rats displaying symptoms of EAE were scored as follows: 1: flaccid tail (FT), 2: hind limb hypotonia (HLH), 3: partial hind limb paralysis (PHLP), 4: complete hind limb paralysis (CHLP), 5: moribund or dead.
# NA:GLA (neat oil) was orally administered 5 days prior to inoculation and continued for 25 days PI, at a dose of 750 mg/kg body weight/day and 1000 mg/kg body weight/day. NA:DHA (neat oil) was given by an identical dosing regime at a dose of 500 mg/kg body weight/day. Control-sensitised animals received PBS vehicle or were undosed. Undosed, vehicle and low dose NA:GLA treatments contained 7 animals. Four rats received high dose NA:GLA and 3 rats were dosed with NA:DHA.
# [8] = Biozzi mouse, 10% w/w in ethyl oleate, 1000 mg/kg body weight/day
# [9] = acute phase, Biozzi mouse, 10% w/w in ethyl oleate, 1000 mg/kg body weight/day
# [10] = relapse phase, Biozzi mouse, 10% w/w in ethyl oleate, 1000 mg/kg body weight/day
# [11] = acute phase, Miglyol 810 vehicle, 1000 mg/kg/day
# [12] = acute phase, Miglyol 810 vehicle, n=12, NA:GLA n=11
# [13] = relapse phase, Miglyol 810 vehicle, 1000 mg/kg/day
# [14] = relapse phase, Miglyol 810 vehicle, NA:GLA n=9, NA:NA n=11
structure (smiles),measurement,setting,value
"CCCCC/C=C\C/C=C\C/C=C\CCCCC(=O)OCCCOC(=O)CCCC/C=C\C/C=C\C/C=C\CCCCC [GLA:GLA, 1,3-Di(z,z,z-6,9,12-Octadecatrienoyloxy)propane]",evidence of diarrhea (absence of toxicity),[1],without evidence of diarrhea
"CCCCC/C=C\C/C=C\C/C=C\CCCCC(=O)OCCCOC(=O)CCCCCCCCCCCCC/C=C\CCCCCCCC [NA:GLA, 1-(z-15-tetracosenoyloxy)-3-(z,z,z-6,9,12-octadecatrienoyloxy)propane]",Acute and relapse symptoms (mean neurological scores),[2]; [8],markedly reduced
same,onset of relapse,[2]; [8],"delayed, but not significantly"
same,Mean day of symptom loss,[2]; [9],30.0 ± 1.4 days
same,Mean day of symptom onset,[2]; [9],21.7 ± 4.2 days
same,Mean duration of symptoms,[2]; [9],5.7 ± 1.5 days
same,Number of dead mice,[2]; [9],0/10
same,No. of diseased mice,"[2]; acute phase, Biozzi mouse, […], oral 1000 mg/kg body weight/day, 5 days prior to inoculation and 43 days PI, n=10",3/10
same,AG: Percentage of mice in the group,"[2]; acute phase, n=10",20%
same,CFT: Percentage of mice in the group,"[2]; acute phase, n=10",20%
same,CHLP: Percentage of mice in the group,"[2]; acute phase, n=10",20%
same,HLH: Percentage of mice in the group,"[2]; acute phase, n=10",30%
same,PFT: Percentage of mice in the group,"[2]; acute phase, n=10",20%
same,PHLP: Percentage of mice in the group,"[2]; acute phase, n=10",20%
same,Mean day of symptom onset,[2]; [10],42.0 ± 1.0 days
same,No. of diseased mice,[2]; [10],3/10
same,Number of dead mice,[2]; [10],0/10
same,AG: Percentage of mice in the group,"[2]; relapse phase, n=10",10%
same,CFT: Percentage of mice in the group,"[2]; relapse phase, n=10",10%
same,CHLP: Percentage of mice in the group,"[2]; relapse phase, n=10",0%
same,HLH: Percentage of mice in the group,"[2]; relapse phase, n=10",30%
same,PFT: Percentage of mice in the group,"[2]; relapse phase, n=10",10%
same,PHLP: Percentage of mice in the group,"[2]; relapse phase, n=10",0%
same,effect on the neurological course of CREAE,"[3]; Biozzi mouse, Miglyol 810 vehicle, 1000 mg/kg/day",clearly reduced the intensity of neurological deficits during both acute and relapsing phases
same,No. of diseased mice,"[3]; acute phase, Biozzi mouse, Miglyol 810 vehicle (90% dilution), 1000 mg/kg/day, up to 43 days PI",10/11
same,Mean day of symptom loss,[3]; [11],25.9 ± 2.0 days
same,Mean day of symptom onset,[3]; [11],17.9 ± 2.6 days
same,Mean duration of symptoms,[3]; [11],6.9 ± 3.0 days
same,Number of dead mice,[3]; [11],1/11
same,AG: Percentage of mice in the group,[3]; [12],73%
same,CFT: Percentage of mice in the group,[3]; [12],82%
same,CHLP: Percentage of mice in the group,[3]; [12],36%
same,D (dead): Percentage of mice in the group,[3]; [12],9%
same,HLH: Percentage of mice in the group,[3]; [12],73%
same,IRR: Percentage of mice in the group,[3]; [12],82%
same,M (moribund): Percentage of mice in the group,[3]; [12],0%
same,PFT: Percentage of mice in the group,[3]; [12],91%
same,PHLP: Percentage of mice in the group,[3]; [12],46%
same,D (dead): Percentage of mice in the group,"[3]; mouse, in vivo",22%
same,M (moribund): Percentage of mice in the group,"[3]; mouse, in vivo",11%
same,Mean day of symptom loss,[3]; [13],39.8 ± 5.0 days
same,Mean day of symptom onset,[3]; [13],33.1 ± 4.9 days
same,Mean duration of symptoms,[3]; [13],7.0 ± 4.2 days
same,No. of diseased mice,[3]; [13],8/9
same,Number of dead mice,[3]; [13],3/9
same,AG: Percentage of mice in the group,[3]; [14],56%
same,CFT: Percentage of mice in the group,[3]; [14],67%
same,CHLP: Percentage of mice in the group,[3]; [14],44%
same,HLH: Percentage of mice in the group,[3]; [14],56%
same,IRR: Percentage of mice in the group,[3]; [14],67%
same,PFT: Percentage of mice in the group,[3]; [14],89%
same,PHLP: Percentage of mice in the group,[3]; [14],56%
same,"NA levels in rat brain lipids compared to normal, undosed and vehicle treated animals",[4],marked increase of NA levels
same,NA levels in mouse brain lipids compared to undosed and vehicle,[5],enhancement of the NA levels in brain lipids
same,miscibility of compositions with vehicle,[6],miscible in all proportions at room temperature
same,CHLP: Number of animals showing symptoms/total,[7]; 750 mg/kg/day,3/7
same,FT: Number of animals showing symptoms/total,[7]; 750 mg/kg/day,7/7
same,HLH: Number of animals showing symptoms/total,[7]; 750 mg/kg/day,7/7
same,PHLP: Number of animals showing symptoms/total,[7]; 750 mg/kg/day,4/7
same,CHLP: Number of animals showing symptoms/total,[7]; 1000 mg/kg/day,1/4
same,FT: Number of animals showing symptoms/total,[7]; 1000 mg/kg/day,4/4
same,HLH: Number of animals showing symptoms/total,[7]; 1000 mg/kg/day,4/4
same,PHLP: Number of animals showing symptoms/total,[7]; 1000 mg/kg/day,2/4
same,"effect on onset, incidence and severity of disease","[7]; 750 and 1000 mg/Kg body weight/day, compared to control groups",delayed the onset and clearly reduced the incidence and severity of disease
same,animals that experienced CHLP,[7]; high dose,25%
same,animals that experienced PHLP,[7]; high dose,50%
same,mean cumulative clinical scores,[7]; low and high dose (750 and 1000 mg/kg/day),consistently lower than control values
same,animals that experienced CHLP,[7]; low dose,43%
same,animals that experienced PHLP,[7]; low dose,57%
same,Mean day of final symptom loss (±SD),[7]; neat oil oral 750 mg/kg/day,19.0 ± 0.8 days
same,Mean day of symptom onset (±SD),[7]; neat oil oral 750 mg/kg/day,11.3 ± 0.8 days
same,Number of dead/total,[7]; neat oil oral 750 mg/kg/day,0/7
same,Number diseased/total,[7]; neat oil oral 750 mg/kg/day,7/7
same,Mean day of final symptom loss (±SD),[7]; neat oil oral 1000 mg/kg/day,18.8 ± 1.3 days
same,Mean day of symptom onset (±SD),[7]; neat oil oral 1000 mg/kg/day,11.3 ± 0.5 days
same,Number of dead/total,[7]; neat oil oral 1000 mg/kg/day,0/4
same,Number diseased/total,[7]; neat oil oral 1000 mg/kg/day,4/4
